Data set [1] addresses T1, GLP-1 receptor (RINm5F cell membranes) (Rattus norvegicus, UniProt P32301).
T1 construct: RINm5F insulinoma cells expressing endogenous GLP-1 receptors; endogenous in cells; host or cells: RINm5F cell membranes
T1 sequence (P32301 22-463): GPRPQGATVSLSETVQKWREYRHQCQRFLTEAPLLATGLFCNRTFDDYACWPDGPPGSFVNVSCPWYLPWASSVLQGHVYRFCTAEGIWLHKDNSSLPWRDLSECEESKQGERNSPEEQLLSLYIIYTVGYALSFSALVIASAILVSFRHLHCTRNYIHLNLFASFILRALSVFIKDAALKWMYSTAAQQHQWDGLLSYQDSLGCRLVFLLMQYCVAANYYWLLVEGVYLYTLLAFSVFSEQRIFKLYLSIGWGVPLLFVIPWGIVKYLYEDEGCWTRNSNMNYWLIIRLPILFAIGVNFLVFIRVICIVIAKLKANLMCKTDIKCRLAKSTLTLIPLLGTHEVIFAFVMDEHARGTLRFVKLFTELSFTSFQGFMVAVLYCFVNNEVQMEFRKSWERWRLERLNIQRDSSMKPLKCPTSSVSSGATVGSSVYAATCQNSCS
The experiment in a line: GLP-1 receptor binding assay (GLP RBA), [125I]GLP-1 displacement. As to conditions: [125I]GLP-1 tracer. As for the experimental part:
Reaction mixtures are filtered through glass filter pads presoaked with 0.3% PEI solution and rinsed with ice-cold phosphate buffered saline. Bound counts are determined using a scintillation counter. Binding affinities are calculated using GraphPad Prism software (GraphPad Software, Inc., San Diego, Calif.).

The target in data set [2] is T2, RINm5f cells expressing endogenous GLP-1, calcitonin, and GIP receptors (Rattus norvegicus, UniProt P32301).
T2 construct: RINm5f cells expressing endogenous GLP-1, calcitonin, and GIP receptors; endogenous in cells; host or cells: RINm5f cells
T2 sequence (P32301 22-463): T1 sequence (P32301 22-463)
Put plainly: GLP/GIP/CT cAMP (RIN) assay. The format is cell-based. As for the experimental part:
In addition, receptor binding can be measured using cells prepared from confluent cultures of RINm5f cells expressing endogenous GLP-1, calcitonin, and GIP receptors. Cells, and peptide or buffer solution are combined in 384-well plates. After a 30-minute incubation at room temperature in air, cAMP content is measured as recommended in the Perkin-Elmer AlphaScreen kit instructions.
Cells, and peptide or buffer solutions are combined in 384-well plates and incubated at room temperature in air for 30-minutes. cAMP content can then be measured according to recommendations in the Perkin-Elmer AlphaScreen™ kit instructions using the Perkin Elmer Fusion fluorimeter and data are analyzed using XLfit software (IDBS).

Data set [3] in a line: Acute food intake assay (FI Assay). The format is in vivo, NIH/Swiss mice. As to conditions: 1000 μg/kg intraperitoneal, relative to vehicle. How it is done:
The effect of various test peptides on food intake is investigated using an acute food intake assay. This assay measures food consumption in lean, group-housed, overnight-fasted NIH/Swiss mice. Twelve mice are housed three to a cage. […] Decreased, as well as increased, food intake is measured. Testing of the various doses of the polypeptide generates ED50s.
Female NIH/Swiss mice (8-24 weeks old) are group housed with a 12:12 hour light:dark cycle with lights on at 0600. Water and a standard pelleted mouse chow diet are available ad libitum, except as noted. Animals are fasted starting at approximately 1500 hrs, 1 day prior to experiment. The morning of the experiment, animals are divided into experimental groups.
At time=0 min, all animals are given an intraperitoneal injection of vehicle or compound in an amount ranging from about 63 to 1000 μg/kg, and immediately given a pre-weighed amount (10-15 g) of the standard chow.

The next data set deals with DPP-IV (Homo sapiens, UniProt P27487). The experiment in a line: Stability by DPP IV assay. As to conditions: isolated DPP-IV enzyme, DPP-IV approximately 5 mUnit, 37° C., intact peptide remaining, read-out: DDP IV % Stable. Type of data set: in vitro ADME.
Sequence of DPP-IV (P27487 whole entry, species assumed): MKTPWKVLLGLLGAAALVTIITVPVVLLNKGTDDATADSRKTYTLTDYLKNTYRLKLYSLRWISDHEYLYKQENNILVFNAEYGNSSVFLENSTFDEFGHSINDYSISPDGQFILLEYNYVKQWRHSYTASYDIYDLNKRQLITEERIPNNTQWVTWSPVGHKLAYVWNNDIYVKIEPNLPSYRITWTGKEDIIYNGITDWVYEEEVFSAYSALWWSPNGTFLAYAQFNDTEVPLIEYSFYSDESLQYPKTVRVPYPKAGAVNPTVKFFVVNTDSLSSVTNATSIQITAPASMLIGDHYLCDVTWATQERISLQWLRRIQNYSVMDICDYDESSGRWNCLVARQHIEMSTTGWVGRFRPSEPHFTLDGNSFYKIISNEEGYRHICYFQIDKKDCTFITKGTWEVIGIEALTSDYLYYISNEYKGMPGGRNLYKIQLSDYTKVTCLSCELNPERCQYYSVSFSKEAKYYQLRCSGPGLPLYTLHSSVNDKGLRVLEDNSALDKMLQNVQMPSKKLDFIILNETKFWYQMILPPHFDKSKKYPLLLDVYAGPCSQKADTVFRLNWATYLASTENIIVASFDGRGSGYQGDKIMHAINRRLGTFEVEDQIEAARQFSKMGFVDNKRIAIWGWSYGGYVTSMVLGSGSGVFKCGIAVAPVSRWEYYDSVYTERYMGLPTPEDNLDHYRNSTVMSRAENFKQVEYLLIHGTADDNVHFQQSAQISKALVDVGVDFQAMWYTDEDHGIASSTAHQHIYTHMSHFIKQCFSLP

Procedure for DPP-IV: DPP-IV, approximately 5 mUnit in 5 mM Tris-HCl was added to 625 μL HEPES buffer (25 mM) in a 1.5 mL polypropylene microcentrifuge tube with an O-ring seal to prevent evaporation. Peptide stock solution, 70 μL (300 μM in 50% acetonitrile) was carefully added to this and mixed by brief manual shaking. Next, the solution was aliquoted into six tubes (6×100 μl. One tube contained 200 μL Stop solution (50% acetonitrile and 1% formic acid) that was used to determine the initial concentration of peptide (t=0). All six aliquots were then incubated at 37° C. while mixing at 500 RPM in the Vortemp 56 incubator. The digestion was stopped at 10 min intervals by adding 200 μL stop solution. The tube was then placed back into the incubator for 50 min. The solution was centrifuged at 19000×g for 10 minutes at room temperature. The supernatant was removed and 200 μL supernatant was transferred to an autosampler vials for analysis.
The most intense ion of the intact peptide was monitored to determine the rates of degradation and to quantify the amount of intact peptide remaining in the solution.

Compound `CC[C@H](C)[C@H](NC(=O)[C@H](CC(C)C)NC(=O)[C@H](Cc1c[nH]c2ccccc12)NC(=O)[C@H](CC(=O)O)NC(=O)[C@@H](NC(=O)[C@H](Cc1ccccc1)NC(=O)[C@H](CCC(=O)O)NC(=O)[C@H](CCCCN)NC(=O)[C@H](C)NC(=O)[C@H](C)NC(=O)[C@H](CCCCN)NC(=O)[C@H](CCC(=O)O)NC(=O)[C@H](CC(=O)O)NC(=O)[C@H](CC(C)C)NC(=O)[C@H](CCC(N)=O)NC(=O)[C@H](CCC(N)=O)NC(=O)[C@@H](NC(=O)[C@@H](NC(=O)[C@H](CC(=O)O)NC(=O)[C@H](CO)NC(=O)[C@@H](NC(=O)[C@H](Cc1ccccc1)NC(=O)[C@@H](NC(=O)CNC(=O)[C@H](CCC(=O)O)NC(=O)[C@H](C)NC(=O)[C@@H](N)Cc1c[nH]cn1)[C@@H](C)O)[C@@H](C)O)C(C)C)[C@@H](C)O)[C@@H](C)CC)C(=O)N[C@@H](CC(N)=O)C(=O)NCC(=O)NCC(=O)N1CCC[C@H]1C(=O)N[C@@H](CO)C(=O)N[C@@H](CCCCN)C(=O)N[C@@H](CCC(=O)O)C(=O)N[C@H](C(=O)N[C@H](C(=O)N[C@@H](CO)C(=O)O)[C@@H](C)CC)[C@@H](C)CC` [compound 1] yielded a 50% inhibitory concentration (IC50) in data set [1] of 3 nM. Further, the “GLP/GIP/CT cAMP(RIN) EC50” value in data set [2] came out at 1.9 nM. In addition, the “Food Intake % inhibition 30 min” value in data set [3] (30 min) is 56%. In data set [3] (60 min), the “Food Intake % inhibition 60 min” value came to 69%. Besides, the “Food Intake % inhibition 120 min” value in data set [3] (120 min) is 73%. The “Food Intake % inhibition 180 min” value in data set [3] (180 min) came to 72%. At DPP-IV, the remaining at 50 min, 30 µM amounted to 99%.

(Values after patent US20100009907A1, “Glucagon-Like Peptides and Uses Thereof” (AMYLIN PHARMACEUTICALS, INC., priority 2006, published 2010).)
